In patent publication US20240116882A1, “NOVEL BENZOTRIAZOLE DERIVATIVE HAVING INHIBITORY ACTIVITY AGAINST ECTONUCLEOTIDE PYROPHOSPHATASE-PHOSPHODIESTERASE, AND USE THEREOF” (TXINNO BIOSCIENCE INC., priority 2021, published 2024):
pIC50: −log10 of the molar value. Where a name gives a salt, the structure may show the parent alone.

target: T1, human recombinant ENPP1 enzymes (Homo sapiens, UniProt P22413); assay: ENPP1 Enzyme Assay with cGAMP Substrate (AMP-Glo); type: biochemical; conditions: human recombinant ENPP1, cGAMP 5 μM, 37° C. 90 minutes, AMP-Glo luminescence; read-out: Enzymatic activity (IC50)
T1 construct: purchased R & D systems
T1 sequence (P22413 1-925): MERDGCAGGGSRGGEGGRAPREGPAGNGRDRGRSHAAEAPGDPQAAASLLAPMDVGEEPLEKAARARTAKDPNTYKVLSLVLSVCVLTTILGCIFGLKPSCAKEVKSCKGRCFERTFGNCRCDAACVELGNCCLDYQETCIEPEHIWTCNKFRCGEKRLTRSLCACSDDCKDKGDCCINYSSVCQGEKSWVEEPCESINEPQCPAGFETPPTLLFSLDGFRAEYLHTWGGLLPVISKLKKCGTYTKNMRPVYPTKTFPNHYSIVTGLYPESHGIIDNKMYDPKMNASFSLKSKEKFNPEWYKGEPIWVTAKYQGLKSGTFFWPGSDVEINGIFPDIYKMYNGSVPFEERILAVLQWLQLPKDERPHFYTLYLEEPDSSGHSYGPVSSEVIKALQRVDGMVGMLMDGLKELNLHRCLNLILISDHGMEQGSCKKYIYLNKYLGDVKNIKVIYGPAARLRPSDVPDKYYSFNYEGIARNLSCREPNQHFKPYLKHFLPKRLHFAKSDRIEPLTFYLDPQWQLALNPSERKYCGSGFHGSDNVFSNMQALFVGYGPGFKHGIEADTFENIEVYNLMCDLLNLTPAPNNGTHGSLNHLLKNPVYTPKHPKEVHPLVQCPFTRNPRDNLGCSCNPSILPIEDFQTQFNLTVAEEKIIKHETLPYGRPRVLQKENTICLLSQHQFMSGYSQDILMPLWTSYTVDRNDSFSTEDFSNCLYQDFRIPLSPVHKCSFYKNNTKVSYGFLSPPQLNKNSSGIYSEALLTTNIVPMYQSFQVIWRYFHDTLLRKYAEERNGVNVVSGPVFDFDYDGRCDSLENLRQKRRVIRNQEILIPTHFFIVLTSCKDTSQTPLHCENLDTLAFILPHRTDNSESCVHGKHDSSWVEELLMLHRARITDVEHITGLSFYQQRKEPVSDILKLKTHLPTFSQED
Protocol: ENPP1 hydrolyzes nucleotides or nucleotide derivatives to produce nucleoside-5′-monophosphate and pyrophosphate. In addition, ENPP1 hydrolyzes 2′,3′-cGAMP to produce 5′-adenosine monophosphate (AMP) and 5′-guanosine monophosphate (GMP). AMP produced from the reaction is measured using the AMP-Glo® kit (Promega). The AMP-Glo® kit contains two reagents. The first reagent terminates the AMP-producing enzymatic reaction, removes ATP and converts the produced AMP into ADP. The second reagent converts ADP into ATP which is used to generate luminescence in the luciferase reaction. The amount of luminescence measured is proportional to the amount of AMP produced by ENPP1.
The final reaction solution contains 50 mM Tris (pH 8.5) buffer, 250 mM NaCl, 0.5 mM CaCl2), 1 μM ZnCl2, 5% glycerol and 1% DMSO. Serially diluted ENPP1 inhibitors (typically in the range of 10 μM to 0.5 nM) were pre-stored with human recombinant ENPP1 enzymes (R & D systems) at 3 ng/reaction and room temperature (RT) for 5 to 10 minutes. The reaction was initiated by addition of cGAMP (at a final concentration of 5 μM) and reacted at 37° C. for 90 minutes. At the end of the reaction, 10 μl of the AMP-Glo first reagent was added to stop the reaction and the result was stored at room temperature for 1 hour. After storage, 20 μl of an AMP detection solution (a mixture of AMP-Glo II reagent and Kinase-Glo at a ratio of 1:100) was added and stored at room temperature for 1 hour. Luminescence signals were measured using a Victor® plate reader (Perkin Elmer). The maximal activity control (containing enzymes and substrates in the presence of 1% DMSO; MAX) and the minimal activity control (containing substrates and 1% DMSO; MIN) were evaluated simultaneously. In each experiment, serially diluted reference ENPP1 inhibitors were tested as well. IC50, indicating % residual activity versus compound concentration was determined by fitting inhibition curves using the 3-parameter analysis of GraphPad Prism® software. Serially diluted samples of one compound were tested two or more times and an average IC50 of each compound was calculated.

Row | pIC50 | Compound
1 | > 6.00 | COc1cc2nnn(-c3ccc(CNS(N)(=O)=O)cc3F)c2cc1F [Example 93, N-(3-fluoro-4-(6-fluoro-5-methoxy-1H-benzo[d][1,2,3]triazol-1-yl)benzyl)sulfamide]
2 | > 6.00 | COc1ccc2c(c1)nnn2-c1ccc2c(c1)CN(S(N)(=O)=O)C2 [Example 94, 5-(5-methoxy-1H-benzo[d][1,2,3]triazol-1-yl)isoindoline-2-sulfonamide]
3 | > 6.00 | COc1ccc2c(c1)nnn2-c1ccc2c(c1)CC(NS(N)(=O)=O)C2 (centres unmarked) [Example 95]
4 | > 6.00 | COc1ccc2c(c1)nnn2-c1ccc2c(c1)CCN(S(N)(=O)=O)C2 [Example 96, 6-(5-methoxy-1H-benzo[d][1,2,3]triazol-1-yl)-3,4-dihydroisoquinoline-2(1H)sulfonamide]
5 | > 6.00 | COc1ccc2c(c1)nnn2-c1ccc2c(c1)CN(S(N)(=O)=O)CC2 [Example 97, 7-(5-methoxy-1H-benzo[d][1,2,3]triazol-1-yl)-3,4-dihydroisoquinoline-2(1H)sulfonamide]
6 | < 5.00 | COc1ccc2c(c1)nnn2-c1ccc2c(c1)CN(S(N)(=O)=O)CCC2 [Example 98, 8-(5-methoxy-1H-benzo[d][1,2,3]triazol-1-yl)-1,3,4,5-tetrahydro-2H-benzo[c]azepine-2-sulfonamide]
7 | > 6.00 | COc1ccc2c(c1)nnn2-c1cc2c(cc1F)CN(S(N)(=O)=O)CC2 [Example 101, 7-fluoro-6-(5-methoxy-1H-benzo[d][1,2,3]triazol-1-yl)-3,4-dihydroisoquinoline-2(1H)-sulfonamide]
8 | > 6.00 | COc1cc2nnn(-c3ccc4c(c3)CN(S(N)(=O)=O)C4)c2cc1OC [Example 102, 5-(5,6-dimethoxy-1H-benzo[d][1,2,3]triazol-1-yl)-isoindoline-2-sulfonamide]
9 | > 6.00 | COc1cc2nnn(-c3ccc4c(c3)CC(NS(N)(=O)=O)C4)c2cc1OC (centres unmarked) [Example 103, N-(5-(5,6-dimethoxy-1H-benzo[d][1,2,3]triazol-1-yl)-dihydro-1H-inden-2-yl)sulfamide]
10 | 5.00 to 6.00 | COc1ccc2c(c1)nnn2Cc1ccc(NS(N)(=O)=O)cc1 [Example 104, N-(4-((5-methoxy-1H-benzo[d][1,2,3]triazol-1-yl)methyl)phenyl)sulfamide Hydrochloride]
11 | < 5.00 | COc1ccc2c(c1)nnn2Cc1ccc(CNS(N)(=O)=O)cc1 [Example 105, N-(4-((5-methoxy-1H-benzo[d][1,2,3]triazol-1-yl)methyl)benzyl)sulfamide Hydrochloride]
12 | < 5.00 | COc1ccc2c(c1)nnn2-c1ccc(CNS(N)(=O)=O)s1 [Example 106, N-((5-(5-methoxy-1H-benzo[d][1,2,3]triazol-1-yl)thiophen-2-yl)methyl)sulfamide]
13 | 5.00 to 6.00 | COc1ccc2nn(Cc3ccc(NS(N)(=O)=O)cc3)nc2c1 [Example 109, Hydrochloride]
14 | 5.00 to 6.00 | COc1ccc2nn(Cc3ccc(CNS(N)(=O)=O)cc3)nc2c1 [Example 110, N-(4-((5-methoxy-2H-benzo[d][1,2,3]triazole-2-yl)benzyl)sulfamide Hydrochloride]
15 | < 5.00 | COc1ccc2c(c1)nnn2-c1ccc(CNS(C)(=O)=O)cc1F [Example 112, N-(3-fluoro-4-(5-methoxy-1H-benzo[d][1,2,3]triazol-1-yl)benzyl)methanesulfonamide]
16 | < 5.00 | CCS(=O)(=O)NCc1ccc(-n2nnc3cc(OC)ccc32)c(F)c1 [Example 113, N-(3-fluoro-4-(5-methoxy-1H-benzo[d][1,2,3]triazol-1-yl)benzyl)ethanesulfonamide]
17 | < 5.00 | COc1ccc2c(c1)nnn2-c1ccc(CNS(=O)(=O)c2ccc(C)cc2)cc1F [Example 114, N-(3-fluoro-4-(5-methoxy-1H-benzo[d][1,2,3]triazol-1-yl)benzyl)-4-methylbenzenesulfonamide]
18 | < 5.00 | COc1ccc2c(c1)nnn2-c1ccc(C(=O)O)cc1F [Example 116, 3-fluoro-4-(5-methoxy-1H-benzo[d][1,2,3]triazol-1-yl)benzoic Acid]
19 | < 5.00 | COc1ccc2c(c1)nnn2-c1ccc(P(=O)(O)O)cc1 [Example 118]
20 | > 6.00 | COc1ccc2c(c1)nnn2-c1ccc(CP(=O)(O)O)cc1 [Example 119]
21 | < 5.00 | COc1ccc2c(ccn2-c2ccc(CNS(N)(=O)=O)cc2)c1 [Example 122, N-(4-(5-methoxy-1H-indol-1-yl)benzyl)sulfamide]

Row | Compound | pIC50
22 | COc1ccc2c(c1)nnn2C1CCN(CCS(=O)(=O)F)CC1 [Example 111, 2-(4-(5-methoxy-1H-benzo[d][1,2,3]triazol-1-yl)piperidin-1-yl)ethane-1-sulfonyl Fluoride] | < 5.00
23 | CCOP(=O)(NCc1ccc(-n2nnc3cc(OC)ccc32)c(F)c1)OCC [Example 117, diethyl-(3-fluoro-4-(5-methoxy-1H-benzo[d][1,2,3]triazol-1-yl)benzyl)phosphoamidite] | < 5.00
